US7427590B2, “Neurothrophic components of the ADNF I complex” (The United States of America as represented by the …, priority 2001, dated 2008)
Entries after “also recorded” stand apart in the source; their conditions may differ. Read-outs that look alike come from different tables or passages of the source. Non-standard residues stand in square brackets, D forms with d. Residues, ends and D or L forms follow the SMILES beside them. *: point of attachment. Sta = CC(C)C[C@H](N)[C@@H](O)CC(=O)O; Isovaleryl = CC(C)CC(=O)*

Key:
[1] = test system: 14 kDa purified ADNF I complex; assay type: cell-based; details: pre-treatment of ADNF I, 1 μM TTX; for Effect on survival-promoting peak of component I (10^−12 dilution) / Effect on survival-promoting peak of component III (10^−5 dilution): 1 μM pepstatin A, 10 μg/ml E-64 or 0.1 mM subtilisin V inhibitor; for Effect on survival-promoting peak of component II (10^−8 dilution): 1 μM pepstatin A or 10 μg/ml E-64
[2] = test system: dissociated cerebral cortical cultures; assay type: cell-based, rat
[3] = test system: component II of the ADNF I complex; experiment: Blockade of component II protease activity in cell-free protease assay; assay type: biochemical; details: 10 μl of pepstatin stock (1 mg/ml methanol, diluted 1:100)
Description: FIG. 28. A time course of component II (see FIGS. 26 and 27) in a cell-free protease assay using Bz-Arg-Gly-Phe-Phe-Pro-MβNA, HCl (Cathepsin D substrate). The conditions of the assay are as follows: 10 μl of substrate (5 mg dissolved in 100 μl of DMSO (dimethyl sulfoxide), diluted to 1 ml of water), 10 μl of 10 mM CaCl2; 50 μl of component II (10^−8 dilution of the preparation characterized in FIGS. 26 and 27); and 30 μl of buffer (0.5 M dibasic phosphate, pH 7.8). For this assay, buffer, enzyme, calcium were added to 96 well culture trays. Based on glycoprotein alpha-1 acid standards on NCHO capillary, the optimum protease activity is observed at 1 fM amounts of components II.
FIG. 29. […] In culture wells treated with pepstatin, 10 μl of the stock solution (1 mg dissolved in 1 ml of methanol, diluted 1:100 with water) was added. In control wells, an addition 10 ul of methanol/water (1:100 dilution in water) alone was added. Fluorescence changes indicative of peptide subtract cleavage were monitored as described in FIG. 28.

Row | Molecule | Effect on survival-promoting peak of component I (10^−12 dilution) [1] | Effect on survival-promoting peak of component III (10^−5 dilution) [1] | Survival-promoting activity of digest peptide fractions (neuronal cell counts) [2] | Effect on survival-promoting peak of component II (10^−8 dilution) [1] | other results
1 | C[C@H](NC(=O)OC(C)(C)C)C(=O)N1CCC[C@H]1C(=O)N[C@@H](Cc1ccccc1)C(=O)NOC(=O)c1ccc(Cl)cc1 [subtilisin V inhibitor, Boc-Ala-Pro-Phe-NHO-Bz-pCl] | enhanced | enhanced | – | – | –
2 | NNSTTYAPISANVSTALGSTAALPTAAGPV | – | – | Significant increases in neuronal cell counts | – | Another peak of activity (concentration) [2]: 10^−8 M
3 | GPTADITLTK | – | – | Significant increases in neuronal cell counts | – | –
4 | CC(C)C[C@H](NC(=O)[C@H]1O[C@@H]1C(=O)O)C(=O)NCCCCN=C(N)N [E-64] | inhibited; also recorded: prevented; also recorded: blocked | inhibited; also recorded: prevented; also recorded: blocked | – | not diminished | –
5 | CC(C)CC(=O)N[C@H](C(=O)N[C@H](C(=O)N[C@@H](CC(C)C)[C@@H](O)CC(=O)N[C@@H](C)C(=O)N[C@@H](CC(C)C)[C@@H](O)CC(=O)O)C(C)C)C(C)C [Pepstatin A] (Isovaleryl-VV[Sta]A[Sta]-OH) | small decrease | not affected | – | prevented | Effect on survival-promoting peak of component II (10^−8 dilution) ([1]; listed as pepstatin A): blocked; Effect on survival-promoting peak of component II (10^−8 dilution) ([1]; listed as peptstatin A): inhibited; Effect on component II-mediated increases in protease activity [3]: prevent the component II-mediated increases in protease activity
6 | SESSGTSELLTR | – | – | Significant increases in neuronal cell counts | – | –
